Data reported in ChEMBL document CHEMBL6114980, “Single or double lipid-modified ultra-short antimicrobial peptides for treating infections caused by resistant bacteria” (Eur J Med Chem, 2025).
≈ marks a conversion by molar mass, not a printed value. Calls of active or inactive are those of the source. The calls are words filed in the database; no cut-off is given here. Peptide text beside a SMILES is read from it. * marks the point of attachment. Lauroyl = CCCCCCCCCCCC(=O)*; Octanoyl = CCCCCCCC(=O)*

How the values were obtained:
[1] = test system: Acinetobacter baumannii; assay: Antibacterial activity against Acinetobacter baumannii ATCC 19606 assessed as reduction in bacterial growth incubated for 18 to 24 hrs by broth microdilution method; format: functional; conditions: time 18-24 hrs
[2] = test system: Escherichia coli; assay: Antibacterial activity against Escherichia coli ATCC 25922 assessed as reduction in bacterial growth incubated for 18 to 24 hrs by broth microdilution method; format: functional; conditions: time 18-24 hrs
[3] = test system: Pseudomonas aeruginosa; assay: Antibacterial activity against Pseudomonas aeruginosa ATCC 27853 assessed as reduction in bacterial growth incubated for 18 to 24 hrs by broth microdilution method; format: functional; conditions: time 18-24 hrs
[4] = test system: Staphylococcus aureus; assay: Antibacterial activity against methicillin-resistant Staphylococcus aureus ATCC 33591 assessed as reduction in bacterial growth incubated for 18 to 24 hrs by broth microdilution method; format: functional; conditions: time 18-24 hrs
[5] = test system: Staphylococcus aureus; assay: Antibacterial activity against methicillin-resistant Staphylococcus aureus 75 assessed as reduction in bacterial growth incubated for 18 to 24 hrs by broth microdilution method; format: functional; conditions: time 18-24 hrs
[6] = test system: Staphylococcus aureus; assay: Antibacterial activity against Staphylococcus aureus 113 assessed as reduction in bacterial growth incubated for 18 to 24 hrs by broth microdilution method; format: functional; conditions: time 18-24 hrs
[7] = test system: Staphylococcus aureus; assay: Antibacterial activity against Staphylococcus aureus 125 assessed as reduction in bacterial growth incubated for 18 to 24 hrs by broth microdilution method; format: functional; conditions: time 18-24 hrs
[8] = test system: Staphylococcus aureus; assay: Antibacterial activity against Staphylococcus aureus 794 assessed as reduction in bacterial growth incubated for 18 to 24 hrs by broth microdilution method; format: functional; conditions: time 18-24 hrs
[9] = test system: Enterococcus faecalis; assay: Antibacterial activity against Enterococcus faecalis ATCC 29212 assessed as reduction in bacterial growth incubated for 18 to 24 hrs by broth microdilution method; format: functional; conditions: time 18-24 hrs
[10] = test system: Staphylococcus epidermidis; assay: Antibacterial activity against Staphylococcus epidermidis ATCC 12228 assessed as reduction in bacterial growth incubated for 18 to 24 hrs by broth microdilution method; format: functional; conditions: time 18-24 hrs
[11] = test system: Acinetobacter baumannii; assay: Antibacterial activity against Acinetobacter baumannii 92359 assessed as reduction in bacterial growth incubated for 18 to 24 hrs by broth microdilution method; format: functional; conditions: time 18-24 hrs
[12] = test system: Escherichia coli; assay: Antibacterial activity against Escherichia coli 850 assessed as reduction in bacterial growth incubated for 18 to 24 hrs by broth microdilution method; format: functional; conditions: time 18-24 hrs
[13] = test system: Escherichia coli; assay: Antibacterial activity against Escherichia coli 780 assessed as reduction in bacterial growth incubated for 18 to 24 hrs by broth microdilution method; format: functional; conditions: time 18-24 hrs
[14] = test system: Pseudomonas aeruginosa; assay: Antibacterial activity against Pseudomonas aeruginosa 6434N assessed as reduction in bacterial growth incubated for 18 to 24 hrs by broth microdilution method; format: functional; conditions: time 18-24 hrs
[15] = test system: Staphylococcus aureus; assay: Antibacterial activity against Staphylococcus aureus assessed as reduction in survival bacterial growth in presence of <=2 ug/ml chymotrypsin measured after1 hr by absorbance based analysis; format: functional, organism-based; conditions: time 1.0 hrs
[16] = test system: Escherichia coli; assay: Antibacterial activity against Escherichia coli assessed as reduction in survival bacterial growth in presence of ZnCl2 measured after 18 to 24 hrs (reference value: 8 microM); format: functional; conditions: time 18-24 hrs
[17] = test system: Escherichia coli; assay: Antibacterial activity against Escherichia coli assessed as reduction in survival bacterial growth in presence of KCl measured after 18 to 24 hrs (reference value: 8 microM); format: functional; conditions: time 18-24 hrs
[18] = test system: Staphylococcus aureus; assay: Bactericidal activity against Staphylococcus aureus 25923 assessed as eradication of bacteria at 2 times MIC measured within 1 hr by time-kill assay; format: functional, organism-based
[19] = test system: Staphylococcus aureus; assay: Induction of morphological changes in Staphylococcus aureus assessed as cell foaming at 2 times MIC measured after 30 mins by SEM analysis; format: functional, organism-based
[20] = test system: Staphylococcus aureus; assay: Induction of morphological changes in Staphylococcus aureus assessed as cell aggregation adhesion at 2 times MIC measured after 120 mins by SEM analysis; format: functional, organism-based
[21] = test system: Staphylococcus aureus; assay: Induction of cell membrane disruption in Staphylococcus aureus assessed as PI uptake at 2 to 4 times MIC measured after 120 mins by PI staining based flow cytometry analysis (Rvb =<10 %); format: functional; conditions: 2 h
[22] = test system: Escherichia coli; assay: Induction of cell membrane disruption in Escherichia coli assessed as PI uptake at 4 times MIC measured after 120 mins by PI staining based flow cytometry analysis (Rvb =<10 %); format: functional; conditions: 2 h
[23] = test system: Cell membrane; assay: Induction of inner membrane permeabilization in Escherichia coli at 4 times MIC measured for 135 mins by absorbance based analysis
[24] = test system: Cell membrane; assay: Induction of inner membrane permeabilization in Escherichia coli at 2 times MIC measured for 135 mins by absorbance based analysis
[25] = test system: Lipopolysaccharide (LPS); assay: Binding affinity to LPS (unknown origin) assessed as reduction in bacterial mortality at 2 times MIC preincubated with LPS for 1 hr followed by bacteria addition for 24 hrs by spectrophotometric analysis
[26] = test system: Staphylococcus aureus; assay: Bactericidal activity against Staphylococcus aureus assessed as bacterial mortality rate at 2 times MIC preincubated with LTA for 1 hr followed by bacteria addition for 24 hrs by spectrophotometric analysis relative to control; format: functional
[27] = test system: Staphylococcus aureus; assay: Antibacterial activity against Staphylococcus aureus 25923 at sub-MIC concentration measured after 15 passages; format: functional, organism-based
[28] = test system: Staphylococcus aureus; assay: Synergistic antibacterial activity against Staphylococcus aureus 25923 measured after 18 hrs in presence of cephalothin by absorbance based analysis; format: functional, organism-based
[29] = test system: Staphylococcus aureus; assay: Synergistic antibacterial activity against Staphylococcus aureus 113 measured after 18 hrs in presence of polymyxin B by absorbance based analysis; format: functional, organism-based
[30] = test system: Staphylococcus aureus; assay: Synergistic antibacterial activity against methicillin-resistant Staphylococcus aureus measured after 18 hrs in presence of streptomycin by absorbance based analysis; format: functional, organism-based
[31] = test system: Staphylococcus aureus; assay: Synergistic antibacterial activity against Staphylococcus aureus 25923 assessed as fractional inhibitory in presence of polymyxin B by checker board assay; format: functional
[32] = test system: Staphylococcus aureus; assay: Synergistic antibacterial activity against Staphylococcus aureus 25923 assessed as fractional inhibitory in presence of streptomycin by checker board assay; format: functional
[33] = test system: Staphylococcus aureus; assay: Additive antibacterial activity against Staphylococcus aureus 113 assessed as fractional inhibitory in presence of streptomycin by checker board assay; format: functional
[34] = Acute toxicity in male BALB/c mouse assessed mouse survival at 100 to 130 mg/kg, ip measured within 3 hrs; format: organism-based; conditions: in vivo, dose 100-130 mg/kg
[35] = Acute toxicity in male BALB/c mouse assessed lethal dose administered as ip dose measured for 7 days; format: organism-based; conditions: in vivo, time 7 day
[36] = Potency index, ratio of polymyxin B to test compound for acute toxicity in BALB/c mouse assessed lethal dose administered as ip dose measured for 7 days; format: organism-based; conditions: in vivo, 168 h, time 7 day
[37] = test system: Klebsiella pneumoniae; assay: Antibacterial activity against Klebsiella pneumoniae ATCC 700603 infected in male BALB/c mouse lung infection model assessed as reduction in bacterial load at 5 mg/kg, ip measured after 6 to 36 hrs (reference value: 1.77 10^6CFU/mg); format: functional; conditions: time 6-36 hrs
[38] = test system: Klebsiella pneumoniae; assay: Antibacterial activity against Klebsiella pneumoniae ATCC 700603 infected in male BALB/c mouse lung infection model assessed as expansion of lung alveoli at 5 mg/kg, ip measured after 6 to 36 hrs; format: functional, organism-based; conditions: time 6-36 hrs
[39] = test system: Staphylococcus aureus; assay: Antibacterial activity against methicillin resistant Staphylococcus aureus infected in male BALB/c mouse model of skin wound infection assessed as reduction in wound area at 2 mg/kg, ip measured after 6 to 36 hrs postinfection; format: functional, organism-based; conditions: time 6-36 hrs
[40] = test system: Staphylococcus aureus; assay: Antibacterial activity against methicillin resistant Staphylococcus aureus infected in male BALB/c mouse model of skin wound infection assessed as healthy development of sebaceous glands at 2 mg/kg, ip measured after 10 days post infection; format: functional, organism-based; conditions: time 10.0 day

SMILES	MIC [1]	MIC [2]	MIC [3]	MIC [4]	MIC [5]	MIC [6]	MIC [7]	MIC [8]	MIC [9]	MIC [10]	MIC [11]	MIC [12]	MIC [13]	MIC [14]	Activity [15]	MIC [16]	MIC [17]	Activity [18]	Activity [19]	Activity [20]	further results
CCCCCCCCCCCC(=O)N[C@@H](CCCCN)C(=O)N[C@@H](CCCCN)C(=O)N[C@@H](Cc1c[nH]c2ccccc12)C(=O)N[C@@H](Cc1c[nH]c2ccccc12)C(N)=O (Lauroyl-KKWW-NH2)	16 µM (≈ 13.2 µg/mL)	8 µM (≈ 6.62 µg/mL)	8 µM (≈ 6.62 µg/mL)	4 µM (≈ 3.31 µg/mL)	4 µM (≈ 3.31 µg/mL)	4 µM (≈ 3.31 µg/mL)	4 µM (≈ 3.31 µg/mL)	4 µM (≈ 3.31 µg/mL)	8 µM (≈ 6.62 µg/mL)	4 µM (≈ 3.31 µg/mL)	16 µM (≈ 13.2 µg/mL)	8 µM (≈ 6.62 µg/mL)	8 µM (≈ 6.62 µg/mL)	8 µM (≈ 6.62 µg/mL)	Active	8 µM	4 µM	Active	Active	Active	Activity [21]: 100%; Activity [22]: 100%; Activity [23]: Active; Compound Showed Stronger Effect Than Positive Control 0.1% Tritonx-100; Activity [24]: Active; Compound Showed Higher Permeability Than Positive Control 0.1% Tritonx-100; Activity [25]: Active; Activity [26]: >50%; Activity [27]: inactive; Activity [28]: Active; Activity [29]: Active; Activity [30]: Active; fractional inhibitory concentration index (FICI) [31]: 0.5; fractional inhibitory concentration index (FICI) [32]: 0.187; fractional inhibitory concentration index (FICI) [33]: 0.562; Activity [34]: Toxic; LD50 at 168 h [35]: 114 mg/kg; Ratio [36]: 4.84; Activity [37]: 2.4 10^4CFU/mg; Activity [38]: Active; Activity [39]: Active; Activity [40]: Active
CCCCCCCC(=O)NCCCC[C@H](NC(=O)CCCCCCC)C(=O)N[C@@H](CCCCN)C(=O)N[C@@H](CCCCN)C(=O)N[C@@H](Cc1c[nH]c2ccccc12)C(=O)N[C@@H](Cc1c[nH]c2ccccc12)C(N)=O (Octanoyl-K(Octanoyl)KKWW-NH2)	16 µM (≈ 16.4 µg/mL)	8 µM (≈ 8.21 µg/mL)	16 µM (≈ 16.4 µg/mL)	8 µM (≈ 8.21 µg/mL)	8 µM (≈ 8.21 µg/mL)	8 µM (≈ 8.21 µg/mL)	8 µM (≈ 8.21 µg/mL)	16 µM (≈ 16.4 µg/mL)	16 µM (≈ 16.4 µg/mL)	8 µM (≈ 8.21 µg/mL)	8 µM (≈ 8.21 µg/mL)	8 µM (≈ 8.21 µg/mL)	8 µM (≈ 8.21 µg/mL)	16 µM (≈ 16.4 µg/mL)	Active	4 µM	8 µM	Active	Active	Active	Activity [21]: 100%; Activity [22]: 100%; Activity [23]: Active; Compound Showed Stronger Effect Than Positive Control 0.1% Tritonx-100; Activity [24]: Active; Activity [25]: Active; Activity [26]: >50%; Activity [27]: inactive; Activity [28]: Active; Activity [29]: Active; Activity [30]: Active; fractional inhibitory concentration index (FICI) [31]: 0.5; fractional inhibitory concentration index (FICI) [32]: 0.312; fractional inhibitory concentration index (FICI) [33]: 0.75; Activity [34]: Toxic; LD50 at 168 h [35]: 113 mg/kg; Ratio [36]: 4.78; Activity [37]: 1.66 10^4CFU/mg; Activity [38]: Active; Activity [39]: Active; Activity [40]: Active
